From US20130205416A1 (priority 2010, published 2013)
Where “and” joins values, the source holds several entries; their conditions need not be identical. Equal values may be shown once. Square brackets hold non-standard residues; d marks the D form. Ends that are not written are not given here.

Columns and labels:
[1] = tested on: PR8/Viet H5N1 virus (A/Vietnam/1194/04); type: cell-based, Influenza A virus
[2] = mouse, in vivo
[3] = tested on: PR8/Vic H3N2 virus (A/Victoria/3/75); type: cell-based, Influenza A virus
A/WSN/33 influenza virus = tested on: A/WSN/33 influenza virus; set-up: species or system BALB/c mice; settings: mouse
A/WSN/33 H1N1 virus [4] = type: cell-based, Influenza A virus
A/WSN/33 H1N1 virus [5] = type: cell-based, Influenza A virus; remark: listed apart in the source
[6] = tested on: H1N1 viruses (A/WSN/33 and A/England/195/09); settings: for IC50: viruses (A/WSN/33 and A/England/195/09)
[7] = tested on: PR8/Eng09 H1N1 virus (A/England/195/09); type: cell-based, Influenza A virus
[8] = tested on: human parainfluenza virus; type: cell-based
[9] = tested on: Semliki Forest virus (SFV); type: cell-based
[10] = tested on: H3N2 viruses (A/Udorn and A/Victoria/3/75); settings: for IC50: viruses (A/Udorn and A/Victoria/3/75)
[11] = tested on: attachment of A/WSN/33 (H1N1) virus to MDCK cells; type: cell-based, Influenza A virus
[12] = target: recombinant Haemagglutinin (HA) (California 04/2009 H1N1 Influenza A) (Influenza A virus, UniProt C3W5S1); type: binding
Sequence of recombinant Haemagglutinin (HA) (California 04/2009 H1N1 Influenza A) (C3W5S1 entry or part of it, added parts left off): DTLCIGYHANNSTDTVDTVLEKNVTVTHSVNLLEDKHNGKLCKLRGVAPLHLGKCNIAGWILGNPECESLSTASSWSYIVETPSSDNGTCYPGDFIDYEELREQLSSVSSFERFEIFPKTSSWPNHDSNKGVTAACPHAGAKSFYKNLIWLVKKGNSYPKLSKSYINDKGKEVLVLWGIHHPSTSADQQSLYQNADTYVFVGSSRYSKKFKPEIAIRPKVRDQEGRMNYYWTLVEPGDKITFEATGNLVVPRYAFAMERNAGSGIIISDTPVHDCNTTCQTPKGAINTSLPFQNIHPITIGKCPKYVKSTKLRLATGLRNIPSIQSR

**Q.** What does the source list for RRKKWLVFFVIYFFR [FP4, RRKKWLVFFVIYFFR]?
**A.** agglutination end point (human RBCs): 0.78 µg/mL; agglutination end point (horse RBCs): 6.25 µg/mL; knockdown [1]: complete knockdown; immunogenicity (serum IgG by ELISA) [2]: neither FP2 nor FP4 peptides were immunogenic; knockdown [3]: 97%; inhibition of lung viral titres in vivo (A/WSN/33 influenza virus): effective; clinical indications (A/WSN/33 influenza virus; in vivo): no clinical indications; survival of mice (A/WSN/33 influenza virus; in vivo): 100%; knockdown of plaque formation (A/WSN/33 H1N1 virus [4]): 100%; reduction in virus yield (A/WSN/33 H1N1 virus [5]): 99% and 50%; IC50 [6]: 66 to 100 nM; knockdown [7]: 90%

**Q.** Which results are given for WLVFFVIFYFFR [FP1]?
**A.** antiviral effects [8]: no antiviral effects; antiviral effects [9]: no antiviral effects; antiviral activity in vivo (body weight, lung virus titre) (A/WSN/33 influenza virus): potent antiviral activity; knockdown of plaque formation (A/WSN/33 H1N1 virus [4]): 94%

**Q.** Which IC50 [10] does the source give for WLVFFVIAYFAR [FP2, WLVFFVIAYFAR] here?
**A.** Its IC50 is 1.6 nM.

**Q.** And the IC50 [6]?
**A.** The IC50 was 1.6 nM.

**Q.** What does the source list for WLVFFVRRKK [FP8]?
**A.** anti-viral activity (A/WSN/33 H1N1 virus [4]): substantial anti-viral activity; knockdown of plaque formation (A/WSN/33 H1N1 virus [4]): 94%

**Q.** Which results are given for PEG300-RRKKWLVFFVIFYFFR [FP4-PEG]?
**A.** reduction in virus yield (A/WSN/33 H1N1 virus [5]): 68%; virus yield (A/WSN/33 H1N1 virus [5]): No virus was detected

**Q.** What does the source list for “FP1-D: FP1 prepared with D-amino acids (SEQ ID NO 20) ([dW][dL][dV][dF][dF][dV][dI][dF][dY][dF][dF][dR])”?
**A.** inhibition of H3N2 virus infection [10]: inhibit; reduction in virus yield (A/WSN/33 H1N1 virus [5]): 85% and 68%; inhibition of H1N1 virus infection [6]: inhibit

**Q.** Which results are given for RRKK-IFYFFR [FP7]?
**A.** inhibition of H3N2 infection [10]: failed to inhibit; inhibition of H1N1 infection [6]: failed to inhibit

**Q.** With “WLVFFVIFYFFRRRKK [FP3, WLVFFVIFYFFRRRKK]” as the substance, how does the agglutination end point (human RBCs) read?
**A.** Its agglutination end point is 0.78 µg/mL.

**Q.** And the “inhibition of viral attachment” value [11]?
**A.** Its value is “completely inhibited”.

**Q.** What about the agglutination end point (horse RBCs) of the same substance?
**A.** The agglutination end point was 6.25 µg/mL.

**Q.** What about the “binding to HA” value [12] of the same substance?
**A.** Its value is “can bind Influenza A HA”.

**Q.** And the “inhibition of H3N2 infection” value [10]?
**A.** Its value is “only weakly inhibit”.

**Q.** What about the IC50 [10] of the same substance?
**A.** The IC50 was 16000 nM.

**Q.** What about the “knockdown of plaque formation” value (A/WSN/33 H1N1 virus [4]) of the same substance?
**A.** Its value is 100%.

**Q.** What about the IC50 [6] of the same substance?
**A.** The IC50 was 66 to 100 nM.

**Q.** Which results are given for FFVIFYRRKK [FP9, FFVIFYRRKK]?
**A.** inhibition of H3N2 infection [10]: to a lesser extent; anti-viral activity (A/WSN/33 H1N1 virus [4]): substantial anti-viral activity; knockdown of plaque formation (A/WSN/33 H1N1 virus [4]): 94%; inhibition of H1N1 infection [6]: very effective; IC50 [6]: 1500 nM

**Q.** With IVWFYLFRFFVF [FP10, IVWFYLFRFFVF] as the substance, how does the “inhibition of lung viral titres in vivo” value (A/WSN/33 influenza virus) read?
**A.** Its value is “values similar to the control groups”.

**Q.** And the IC50 [10]?
**A.** Its IC50 is 72 nM.

**Q.** And the IC50 [6]?
**A.** Its IC50 is < 1.48 nM.
